From patent publication US20250163104A1, “MACROCYCLIC IMMUNOMODULATORS” (priority 2021, published 2025)
Where a SMILES comes first, the peptide text is derived from it. Bridges are numbered along the chain shown (N, C = ends). [ ]: non-standard residue; d: D form. The star is where a group is joined. ξ: configuration not given here. Phe(4-COOH) = N[C@@H](Cc1ccc(C(=O)O)cc1)C(=O)O; Bip = N[C@@H](Cc1ccc(-c2ccccc2)cc1)C(=O)O; Phe(3-Me) = Cc1cccc(C[C@H](N)C(=O)O)c1; Val(3-OH) = CC(C)(O)[C@H](N)C(=O)O; 4Pal = N[C@@H](Cc1ccncc1)C(=O)O; Cha = N[C@@H](CC1CCCCC1)C(=O)O; Cit = NC(=O)NCCC[C@H](N)C(=O)O; Thr(3ξ) = CC(O)[C@H](N)C(=O)O; Carboxymethyl = O=C(O)C*; Orn = NCCC[C@H](N)C(=O)O; Pra = C#CC[C@H](N)C(=O)O; Dab = NCC[C@H](N)C(=O)O; Abu = CC[C@H](N)C(=O)O; Dap = NC[C@H](N)C(=O)O; Propargyl = C#CC*

molecular target: T1, human PD-1 / PD-L1-Ig binding on Jurkat cell line over-expressing human PD-1 (Jurkat-PD-1) (Homo sapiens, UniProt Q15116); test: Jurkat-PD-1 Cell Binding High-Content Screening Assay (CBA); format: cell-based; details: Jurkat HPD1_PDL1 IC50, Jurkat-PD-1 cells, PE-labeled PD-L1-Ig 20 nM final
T1 construct: expressed in transfected cells; host or cells: Jurkat
How it was run: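 Binding of fluorescent PD-L1-Ig (phycoerythrin linked via the Ig tag, 20 nM final) to PD-1-overexpressing Jurkat cells was imaged after a 2 h, 37° C compound pretreatment and 1 hour ligand incubation.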

T1 sequence (Q15116 25-288): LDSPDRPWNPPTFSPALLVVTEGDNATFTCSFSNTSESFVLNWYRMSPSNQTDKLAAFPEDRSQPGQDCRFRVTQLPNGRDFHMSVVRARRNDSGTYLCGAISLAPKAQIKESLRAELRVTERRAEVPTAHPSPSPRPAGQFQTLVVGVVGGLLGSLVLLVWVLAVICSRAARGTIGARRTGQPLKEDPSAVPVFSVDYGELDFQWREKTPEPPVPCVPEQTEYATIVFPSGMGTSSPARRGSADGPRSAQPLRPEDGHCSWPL

Question: CC[C@@H]1NC(=O)[C@H](Cc2c[nH]c3ccccc23)NC(=O)[C@H](CC(=O)O)NC(=O)[C@H](Cc2ccc(OCC(=O)O)cc2)NC(=O)[C@H](CN)NC(=O)CSC[C@@H](C(=O)N[C@@H](C)C(N)=O)NC(=O)[C@H]([C@@H](C)O)NC(=O)[C@H](C(C)C)NC(=O)[C@H](CC2CCCCC2)NC(=O)[C@H](CCN)NC(=O)[C@@H](CC(C)C)NC(=O)[C@H](CCCN)NC(=O)[C@H](C(C)C)NC(=O)[C@H](Cc2ccc(-c3ccccc3)cc2)NC1=O [Compound 1729] ({CH2CO}-[Dap]Y(Carboxymethyl)DW[Abu][Bip]V[Orn][dL][Dab][Cha]VTCA-NH2; thioether N-14) was tested. Which IC50 did it give?
Answer: The IC50 was 0.0169 µM.

same assay, conditions: Jurkat-PD-1 cells, PE-labeled PD-L1-Ig 20 nM final; read-out: Jurkat HPD1_PDL1 IC50

Question: How did the IC50 turn out when CC(C)C[C@H]1NC(=O)[C@H](CCCN)NC(=O)[C@H](CCC(=O)O)NC(=O)[C@H](Cc2ccc(-c3ccccc3)cc2)NC(=O)[C@H](C(C)C)NC(=O)[C@H](Cc2c[nH]c3ccccc23)NC(=O)[C@H](CC(=O)O)NC(=O)[C@H](Cc2ccc(N)cc2)NC(=O)[C@H](Cc2ccc(OCC(=O)O)cc2)NC(=O)CSC[C@@H](C(=O)N[C@@H](C)C(N)=O)NC(=O)[C@H]([C@@H](C)O)NC(=O)[C@H](C(C)C)NC(=O)[C@H](CC2CCCCC2)NC(=O)[C@H](CCN)NC1=O [Compound 2183] was run?
Answer: The IC50 was 0.0194 µM.

Question: CC(C)C[C@H]1NC(=O)[C@H](CCCN)NC(=O)[C@H](CCCNC(N)=O)NC(=O)[C@H](Cc2ccc(-c3ccccc3)cc2)NC(=O)[C@H](C(C)C)NC(=O)[C@H](Cc2c[nH]c3ccccc23)NC(=O)[C@H](CC(=O)O)NC(=O)[C@H](Cc2ccc(OCC(=O)O)cc2)NC(=O)[C@H](CN)NC(=O)CSC[C@@H](C(=O)N[C@@H](C)C(N)=O)NC(=O)[C@H]([C@@H](C)O)NC(=O)[C@H](C(C)C)NC(=O)[C@H](Cc2ccccc2)NC(=O)[C@H](CCN)NC1=O [Compound 1344] ({CH2CO}-[Dap]Y(Carboxymethyl)DWV[Bip][Cit][Orn][dL][Dab]FVTCA-NH2; thioether N-14) was tested. Which IC50 did it give?
Answer: Its IC50 is 0.031 µM.

Question: How did the IC50 turn out when C#CC[C@H](NC(=O)[C@H](CCN)NC(=O)[C@@H]1CSCC(=O)N[C@@H](CCN)C(=O)N[C@@H](Cc2ccc(C(=O)O)cc2)C(=O)N[C@@H](CC(=O)O)C(=O)N[C@@H](Cc2cccc(C)c2)C(=O)N[C@@H](Cc2ccc(C(=O)O)cc2)C(=O)N[C@@H](Cc2ccc(-c3ccccc3)cc2)C(=O)N[C@@H](Cc2ccc(C(=O)O)cc2)C(=O)N[C@@H](CCCN)C(=O)N[C@H](CC(C)C)C(=O)N[C@@H](CCN)C(=O)N[C@@H](CC2CCCCC2)C(=O)N[C@@H](C(C)(C)O)C(=O)N[C@@H](CCCN)C(=O)N1)C(N)=O [Compound 1850] ({CH2CO}-[Dab][Phe(4-COOH)]D[Phe(3-Me)][Phe(4-COOH)][Bip][Phe(4-COOH)][Orn][dL][Dab][Cha][Val(3-OH)][Orn]C[Dab][Pra]-NH2; thioether N-14) was run?
Answer: The IC50 was 0.0052 µM.

Question: For CCCC[C@H]1NC(=O)[C@H](CCCN)NC(=O)[C@H](CCCNC(N)=O)NC(=O)[C@H](Cc2ccc(-c3ccccc3)cc2)NC(=O)[C@H](C(C)C)NC(=O)[C@H](Cc2c[nH]c3ccccc23)NC(=O)[C@H](CC(=O)O)NC(=O)[C@H](Cc2ccc(OCC(=O)O)cc2)NC(=O)[C@H](Cc2ccc(OCC(=O)O)cc2)NC(=O)CSC[C@@H](C(=O)N[C@@H](C)C(N)=O)NC(=O)[C@H]([C@@H](C)O)NC(=O)[C@H](C(C)C)NC(=O)[C@H](CC2CCCCC2)NC(=O)[C@H](CCN)NC1=O [Compound 1698], which IC50 is on record?
Answer: The IC50 was 0.0323 µM.

Question: Which IC50 does the source give for CC(C)C[C@H]1NC(=O)[C@H](CCCN)NC(=O)[C@H](CCCN)NC(=O)[C@H](Cc2ccc(-c3ccccc3)cc2)NC(=O)[C@H](C(C)C)NC(=O)[C@H](Cc2c[nH]c3ccccc23)NC(=O)[C@H](CC(=O)O)NC(=O)[C@H](Cc2ccc(OCC(=O)O)cc2)NC(=O)[C@H](CN)NC(=O)CSC[C@@H](C(=O)N[C@@H](C)C(N)=O)NC(=O)[C@H]([C@@H](C)O)NC(=O)[C@H](C(C)C)NC(=O)[C@H](CC2CCCCC2)NC(=O)[C@H](CCN)NC1=O [Compound 1374] here?
Answer: Its IC50 is 0.0098 µM.

Question: Which IC50 does the source give for CC(C)C[C@@H]1NC(=O)[C@H](CCCNC(=N)N)NC(=O)[C@@H](CC(C)C)NC(=O)[C@H](CCCN)NC(=O)[C@H](CCCNC(=N)N)NC(=O)[C@H](Cc2ccc(-c3ccccc3)cc2)NC(=O)[C@H](C(C)C)NC(=O)[C@H](Cc2c[nH]c3ccccc23)NC(=O)[C@H](CC(=O)O)NC(=O)[C@H](Cc2ccc(O)cc2)NC(=O)[C@H](CC(N)=O)NC(=O)CSC[C@@H](C(=O)N[C@@H](C)C(N)=O)NC(=O)[C@H]([C@@H](C)O)NC(=O)[C@H](C(C)C)NC1=O [Compound 1012] ({CH2CO}-NYDWV[Bip]R[Orn][dL]RLVTCA-NH2; thioether N-14) here?
Answer: The IC50 was 0.0436 µM.

Question: For Cc1cccc(C[C@@H]2NC(=O)[C@H](CC(=O)O)NC(=O)[C@H](Cc3ccc(C(=O)O)cc3)NC(=O)[C@H](Cc3ccncc3)NC(=O)CSC[C@@H](C(=O)N[C@@H](CO)C(N)=O)NC(=O)[C@H](CO)NC(=O)[C@H](C(C)C)NC(=O)[C@H](CC3CCCCC3)NC(=O)[C@H](CCN)NC(=O)[C@@H](CC(C)C)NC(=O)[C@H](CCCN)NC(=O)[C@H](Cc3ccc(OCC(=O)O)cc3)NC(=O)[C@H](Cc3ccc(-c4ccccc4)cc3)NC(=O)[C@H](Cc3ccc(OCC(=O)O)cc3)NC2=O)c1 [Compound 2295] ({CH2CO}-[4Pal][Phe(4-COOH)]D[Phe(3-Me)]Y(Carboxymethyl)[Bip]Y(Carboxymethyl)[Orn][dL][Dab][Cha]VSCS-NH2; thioether N-14), which IC50 is on record?
Answer: The IC50 was 0.0117 µM.

Question: C#CCOc1ccc(C[C@@H]2NC(=O)[C@H](C(C)C)NC(=O)[C@H](CC3CCCCC3)NC(=O)[C@H](CCN)NC(=O)[C@@H](CC(C)C)NC(=O)[C@H](CCCN)NC(=O)[C@H](Cc3ccc(OCC(=O)O)cc3)NC(=O)[C@H](Cc3ccc(-c4ccccc4)cc3)NC(=O)[C@H](Cc3ccc(OCC(=O)O)cc3)NC(=O)[C@H](Cc3cccc(C)c3)NC(=O)[C@H](CC(=O)O)NC(=O)[C@H](Cc3ccc(OCC(=O)O)cc3)NC(=O)[C@H](CN)NC(=O)CSC[C@@H](C(=O)N[C@@H](CCN)C(N)=O)NC2=O)cc1 [Compound 1816] ({CH2CO}-[Dap]Y(Carboxymethyl)D[Phe(3-Me)]Y(Carboxymethyl)[Bip]Y(Carboxymethyl)[Orn][dL][Dab][Cha]VY(Propargyl)C[Dab]-NH2; thioether N-14) was tested. Which IC50 did it give?
Answer: The IC50 was 0.0119 µM.

Question: Which IC50 does the source give for CC[C@H](C)[C@@H]1NC(=O)[C@H](Cc2ccc(-c3ccccc3)cc2)NC(=O)[C@H](C(C)C)NC(=O)[C@H](Cc2c[nH]c3ccccc23)NC(=O)[C@H](CC(=O)O)NC(=O)[C@H](Cc2ccc(O)cc2)NC(=O)[C@H](CC(N)=O)NC(=O)CSC[C@@H](C(=O)N[C@@H](C)C(N)=O)NC(=O)[C@H](CO)NC(=O)[C@H](C(C)C)NC(=O)[C@H](CC(C)C)NC(=O)[C@H](CCN)NC(=O)[C@@H](CC(C)C)NC(=O)[C@H](CCN)NC1=O [Compound 1120] ({CH2CO}-NYDWV[Bip]I[Dab][dL][Dab]LVSCA-NH2; thioether N-14) here?
Answer: The IC50 was 0.0115 µM.

Question: CC(C)C[C@H]1NC(=O)[C@H](CCCN)NC(=O)[C@H](Cc2cnc[nH]2)NC(=O)[C@H](Cc2ccc(-c3ccccc3)cc2)NC(=O)[C@H](C(C)C)NC(=O)[C@H](Cc2c[nH]c3ccccc23)NC(=O)[C@H](CC(=O)O)NC(=O)[C@H](Cc2ccc(OCC(=O)O)cc2)NC(=O)[C@H](C(C)O)NC(=O)CSC[C@@H](C(=O)N[C@@H](CC(N)=O)C(N)=O)NC(=O)[C@H](CO)NC(=O)[C@H](C(C)C)NC(=O)[C@H](CC2CCCCC2)NC(=O)[C@H](CCN)NC1=O (stereo partly drawn) [Compound 2561] ({CH2CO}-[Thr(3ξ)]Y(Carboxymethyl)DWV[Bip]H[Orn][dL][Dab][Cha]VSCN-NH2; thioether N-14) was tested. Which IC50 did it give?
Answer: The IC50 was 0.0082 µM.
